{"source": "PubChem BioAssay AID328", "about": "(DTP/NCI, 2004)", "system": "BDF1 mice, P388 leukemia ip, median survival T/C", "assay": "NCI In Vivo Anticancer Drug Screen. Data for tumor model P388 Leukemia (intraperitoneal) in B6D2F1 (BDF1) mice", "conditions": "endpoint: median survival time, higher = longer survival", "outline": "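Transplantable tumour in mice; compound vs vehicle dosing; survival scored; ratio of treated to control reported.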", "key": {"[1]": {"conditions": "dose: 100.0 mg/kg/injection, schedule: Q01DX001 (ip), vehicle: Klucel (hydroxypropylcellulose) (HPC)"}, "[2]": {"conditions": "dose: 100.0 mg/kg/injection, schedule: Q04DX003 (ip), vehicle: saline with Tween-80"}, "[3]": {"conditions": "dose: 200.0 mg/kg/injection, schedule: Q04DX003 (ip), vehicle: saline with Tween-80"}, "[4]": {"conditions": "dose: 400.0 mg/kg/injection, schedule: Q04DX003 (ip), vehicle: saline with Tween-80"}, "[5]": {"conditions": "dose: 12.5 mg/kg/injection, schedule: Q01DX009 (ip), vehicle: saline"}, "[6]": {"conditions": "dose: 25.0 mg/kg/injection, schedule: Q01DX009 (ip), vehicle: saline"}, "[7]": {"conditions": "dose: 30.0 mg/kg/injection, schedule: Q04DX003 (ip), vehicle: saline"}, "[8]": {"conditions": "dose: 100.0 mg/kg/injection, schedule: Q01DX009 (ip), vehicle: saline"}, "[9]": {"conditions": "dose: 100.0 mg/kg/injection, schedule: Q04DX003 (ip), vehicle: saline"}, "[10]": {"conditions": "dose: 50.0 mg/kg/injection, schedule: Q01DX009 (ip), vehicle: saline"}, "[11]": {"conditions": "dose: 50.0 mg/kg/injection, schedule: Q04DX003 (ip), vehicle: saline"}, "[12]": {"conditions": "dose: 200.0 mg/kg/injection, schedule: Q01DX009 (ip), vehicle: saline"}}, "note": "Where “and” joins values, the source holds several entries; their conditions need not be identical. Equal values may be shown once. Inconclusive results and toxic doses are left out."}
{"smiles": "O=C1c2ccccc2CCC12OC2c1ccc(Cl)cc1", "note": "(stereo unspecified)", "values": [{"measurement": "T/C", "setting": "[1]", "value": "95 % of control"}, {"measurement": "T/C", "setting": "dose: 100.0 mg/kg/injection, schedule: Q04DX003 (ip), vehicle: Klucel (hydroxypropylcellulose) (HPC)", "value": "100 % of control"}, {"measurement": "T/C", "setting": "[2]", "value": "91 % of control"}, {"measurement": "T/C", "setting": "dose: 200.0 mg/kg/injection, schedule: Q01DX001 (ip), vehicle: Klucel (hydroxypropylcellulose) (HPC)", "value": "100 % of control"}, {"measurement": "T/C", "setting": "dose: 200.0 mg/kg/injection, schedule: Q04DX003 (ip), vehicle: Klucel (hydroxypropylcellulose) (HPC)", "value": "104 % of control"}, {"measurement": "T/C", "setting": "[3]", "value": "104 % of control"}, {"measurement": "T/C", "setting": "dose: 400.0 mg/kg/injection, schedule: Q01DX001 (ip), vehicle: Klucel (hydroxypropylcellulose) (HPC)", "value": "90 % of control"}, {"measurement": "T/C", "setting": "dose: 400.0 mg/kg/injection, schedule: Q04DX003 (ip), vehicle: Klucel (hydroxypropylcellulose) (HPC)", "value": "104 % of control"}, {"measurement": "T/C", "setting": "[4]", "value": "95 % of control"}]}
{"smiles": "Cc1ccccc1C(=O)NCC(=O)O", "values": [{"measurement": "T/C", "setting": "[2]", "value": "104 % of control"}, {"measurement": "T/C", "setting": "[3]", "value": "100 % of control"}, {"measurement": "T/C", "setting": "[4]", "value": "100 % of control"}]}
{"smiles": "C=CCOP(=O)(N1CC1C)N1CC1C", "note": "(stereo unspecified)", "values": [{"measurement": "T/C", "setting": "dose: 6.25 mg/kg/injection, schedule: Q01DX009 (ip), vehicle: saline", "value": "106 % of control"}, {"measurement": "T/C", "setting": "[5]", "value": "99 % of control"}, {"measurement": "T/C", "setting": "[6]", "value": "106 % of control"}, {"measurement": "T/C", "setting": "[7]", "value": "109 % of control"}, {"measurement": "T/C", "setting": "dose: 45.0 mg/kg/injection, schedule: Q04DX003 (ip), vehicle: saline", "value": "118 % of control"}, {"measurement": "T/C", "setting": "dose: 75.0 mg/kg/injection, schedule: Q01DX009 (ip), vehicle: saline", "value": "150 % of control and 161 % of control"}, {"measurement": "T/C", "setting": "[8]", "value": "117 % of control"}, {"measurement": "T/C", "setting": "[9]", "value": "180 % of control and 188 % of control"}, {"measurement": "T/C", "setting": "dose: 150.0 mg/kg/injection, schedule: Q04DX003 (ip), vehicle: saline", "value": "188 % of control"}]}
{"smiles": "O=P(O)(Oc1ccccc1)Oc1ccccc1.[Al]", "values": [{"measurement": "T/C", "setting": "dose: 50.0 mg/kg/injection, schedule: Q01DX009 (ip), vehicle: saline with Tween-80", "value": "104 % of control"}, {"measurement": "T/C", "setting": "dose: 100.0 mg/kg/injection, schedule: Q01DX009 (ip), vehicle: saline with Tween-80", "value": "95 % of control"}, {"measurement": "T/C", "setting": "dose: 200.0 mg/kg/injection, schedule: Q01DX009 (ip), vehicle: saline with Tween-80", "value": "95 % of control"}]}
{"smiles": "CC1=CC(=O)OC2(C1)CC1CCC2CN1C", "note": "(stereo unspecified)", "values": [{"measurement": "T/C", "setting": "[5]", "value": "110 % of control"}, {"measurement": "T/C", "setting": "[6]", "value": "100 % of control"}, {"measurement": "T/C", "setting": "dose: 25.0 mg/kg/injection, schedule: Q04DX003 (ip), vehicle: saline", "value": "100 % of control"}, {"measurement": "T/C", "setting": "[10]", "value": "100 % of control"}, {"measurement": "T/C", "setting": "[11]", "value": "104 % of control"}]}
{"smiles": "COc1ccc(C2CCc3cc(OC)c(OC)cc3C2NC=O)cc1OC", "note": "(stereo unspecified)", "values": [{"measurement": "T/C", "setting": "dose: 120.0 mg/kg/injection, schedule: Q01DX009 (ip), vehicle: saline with Tween-80", "value": "87 % of control"}, {"measurement": "T/C", "setting": "dose: 240.0 mg/kg/injection, schedule: Q01DX009 (ip), vehicle: saline with Tween-80", "value": "95 % of control"}]}
{"smiles": "Nc1ncc(-c2ccc(CNc3ccc(C(=O)NC(CC(=O)O)CC(=O)O)cc3)cc2)c(N)n1", "values": [{"measurement": "T/C", "setting": "dose: 2.0 mg/kg/injection, schedule: Q04DX003 (ip), vehicle: saline", "value": "113 % of control"}, {"measurement": "T/C", "setting": "dose: 5.0 mg/kg/injection, schedule: Q04DX003 (ip), vehicle: saline", "value": "104 % of control"}, {"measurement": "T/C", "setting": "dose: 10.0 mg/kg/injection, schedule: Q04DX003 (ip), vehicle: saline", "value": "104 % of control"}, {"measurement": "T/C", "setting": "dose: 20.0 mg/kg/injection, schedule: Q04DX003 (ip), vehicle: saline", "value": "109 % of control"}, {"measurement": "T/C", "setting": "[7]", "value": "118 % of control"}, {"measurement": "T/C", "setting": "dose: 50.0 mg/kg/injection, schedule: Q04DX003 (ip), vehicle: saline with Tween-80", "value": "157 % of control"}, {"measurement": "T/C", "setting": "[11]", "value": "177 % of control"}, {"measurement": "T/C", "setting": "[2]", "value": "242 % of control"}, {"measurement": "T/C", "setting": "[9]", "value": "213 % of control"}]}
{"smiles": "CC1(C)OC(=O)CC(=O)O1", "values": [{"measurement": "T/C", "setting": "[8]", "value": "105 % of control"}, {"measurement": "T/C", "setting": "[9]", "value": "91 % of control"}, {"measurement": "T/C", "setting": "[12]", "value": "100 % of control"}, {"measurement": "T/C", "setting": "dose: 200.0 mg/kg/injection, schedule: Q04DX003 (ip), vehicle: saline", "value": "91 % of control"}, {"measurement": "T/C", "setting": "dose: 400.0 mg/kg/injection, schedule: Q04DX003 (ip), vehicle: saline", "value": "100 % of control"}]}
{"smiles": "O=c1ccccc(Br)c1O", "values": [{"measurement": "T/C", "setting": "dose: 25.0 mg/kg/injection, schedule: Q01DX001 (ip), vehicle: Klucel (hydroxypropylcellulose) (HPC)", "value": "110 % of control"}, {"measurement": "T/C", "setting": "[1]", "value": "121 % of control"}]}
{"smiles": "CO[C@H](C(=O)[C@@H](O)[C@@H](C)O)[C@@H]1Cc2cc3cc(O)c(C)c(O)c3c(O)c2C(=O)[C@H]1O", "values": [{"measurement": "T/C", "setting": "dose: 0.12 mg/kg/injection, schedule: Q01DX009 (ip), vehicle: water", "value": "114 % of control"}, {"measurement": "T/C", "setting": "dose: 0.25 mg/kg/injection, schedule: Q01DX009 (ip), vehicle: water", "value": "107 % of control"}, {"measurement": "T/C", "setting": "dose: 0.5 mg/kg/injection, schedule: Q01DX009 (ip), vehicle: water", "value": "114 % of control"}, {"measurement": "T/C", "setting": "dose: 1.0 mg/kg/injection, schedule: Q01DX009 (ip), vehicle: water", "value": "99 % of control"}, {"measurement": "T/C", "setting": "dose: 2.0 mg/kg/injection, schedule: Q01DX009 (ip), vehicle: water", "value": "97 % of control"}, {"measurement": "T/C", "setting": "dose: 4.0 mg/kg/injection, schedule: Q01DX009 (ip), vehicle: water", "value": "99 % of control"}]}
{"smiles": "Nc1cc(Cl)ccc1O", "values": [{"measurement": "T/C", "setting": "[10]", "value": "114 % of control"}, {"measurement": "T/C", "setting": "[8]", "value": "97 % of control"}, {"measurement": "T/C", "setting": "[12]", "value": "116 % of control"}]}
